In US9650369B2, “Anti-migration and anti-invasion thiazole analogs for treatment of cellular proliferative disease” (XAVIER UNIVERSITY OF LOUISIANA, priority 2012, dated 2017):
pIC50: −log10 of the molar value.

Columns and labels:
[1] = antimigration efficacy of additional thiazole compounds (Table 3); type: cell-based; conditions: cell line not given; read-out: IC50 (anti-migration)
Source text: (§1) The additional thiazole compounds were synthesized and tested for antimigration efficacy and cytotoxicity, with results shown in TABLE 3.

[2] = cytotoxicity of additional thiazole compounds (Table 3); type: cell-based; conditions: cell line not given
Source text: as §1

Row | pIC50 [1] | Compound | Cytotoxicity (Survival at 1 μM) [2]
1 | < 4.30 | COc1cccc(C(=O)N=c2scc(-c3cc(OC)c(OC)c(OC)c3)n2C)c1 [Compound 15m, 3-Methoxy-N-(3-methyl-4-(3,4,5-trimethoxyphenyl)thiazol-2(3H)-ylidene)benzamide] | 103.5%
2 | 6.62 | C=CCn1c(-c2ccc(C)cc2C)csc1=NC(=O)c1ccccc1 [Compound 5q, N-(3-Allyl-4-(2,4-dimethylphenyl)thiazol-2(3H)-ylidene)benzamide] | 115.3%
3 | < 4.30 | COc1ccc(C(=O)Nc2nc(-c3cc(OC)c(OC)c(OC)c3)cs2)c(OC)c1 [Compound 14n, 2,4-Dimethoxy-N-(4-(3,4,5-trimethoxyphenyl)thiazol-2-yl)benzamide] | 93.8%
4 | 4.96 | Cc1ccc(-c2csc(NS(=O)(=O)c3ccccc3)n2)c(C)c1 [Compound 10, N-(4-(2,4-Dimethylphenyl)thiazol-2-yl)benzenesulfonamide] | 137.4%
5 | < 4.60 | COc1ccc(C(=O)Nc2nc(-c3cc(OC)c(OC)c(OC)c3)cs2)cc1OC [Compound 14m, 3,4-Dimethoxy-N-(4-(3,4,5-trimethoxyphenyl)thiazol-2-yl)benzamide] | 87.3%
6 | 6.48 | CCCCn1c(-c2ccc(C)cc2C)csc1=NC(=O)c1ccccc1 [Compound 5n, N-(3-Butyl-4-(2,4-dimethylphenyl)thiazol-2(3H)-ylidene)benzamide] | 70.4%
7 | 6.36 | CN(C(=O)c1ccccc1)c1nc(-c2cccc(Br)c2)cs1 [Compound 16b, N-(4-(3-Bromophenyl)thiazol-2-yl)-N-methylbenzamide] | 104.4%
8 | 6.44 | Cn1c(-c2cccc(Cl)c2)csc1=NC(=O)c1ccccc1 [Compound 15e, N-(4-(3-Chlorophenyl)-3-methylthiazol-2(3H)-ylidene)benzamide] | 35.2%
9 | 7.19 | C#CCn1c(-c2ccccc2)csc1=NC(=O)c1ccccc1 [Compound 7d, N-(4-Phenyl-3-(prop-2-yn-1-yl)thiazol-2(3H)-ylidene)benzamide] | 63.0%
10 | 6.33 | COc1cc(C(=O)N(C)c2nc(-c3cc(OC)c(OC)c(OC)c3)cs2)cc(OC)c1OC [Compound 16j, 3,4,5-Trimethoxy-N-methyl-N-(4-(3,4,5-trimethoxyphenyl)thiazol-2-yl)benzamide] | 114.8%
11 | 5.04 | Cc1sc(NC(=O)c2ccccc2)nc1-c1ccc(F)cc1 [Compound 14i, N-(4-(4-Fluorophenyl)-5-methylthiazol-2-yl)benzamide] | 53.7%
12 | 6.05 | CCn1c(-c2ccccc2)csc1=NC(=O)c1ccccc1 [Compound 8a, N-(4-phenyl-3-ethylthiazol-2(3H)-ylidene)benzamide] | 128.9%
13 | 4.82 | COc1cc(-c2csc(NC(=O)c3cccc(OC)c3OC)n2)cc(OC)c1OC [Compound 14p, 2,3-Dimethoxy-N-(4-(3,4,5-trimethoxyphenyl)thiazol-2-yl)benzamide] | 90.1%
14 | 4.82 | Cc1csc(=NC(=O)c2ccccc2)n1C [Compound 15a, N-(3,4-Dimethylthiazol-2(3H)-ylidene)benzamide] | 102.6%
15 | 4.82 | O=C(Nc1nc(-c2ccccc2Cl)cs1)c1ccccc1 [Compound 14b, N-(4-(2-Chlorophenyl)thiazol-2-yl)benzamide] | 102.4%
16 | 5.10 | COc1ccc(C(=O)N=c2scc(-c3cc(OC)c(OC)c(OC)c3)n2C)cc1 [Compound 15k, 4-Methoxy-N-(3-methyl-4-(3,4,5-trimethoxyphenyl)thiazol-2(3H)-ylidene)benzamide] | 105.6%
17 | 5.97 | COc1cc(-c2cs/c(=N/C(=O)c3ccccc3)n2C)cc(OC)c1OC [Compound 15g, N-(4-(3,4,5-Trimethoxyphenyl)-3-methylthiazol-2(3H)-yliene)-benzamide] | 88.4%
18 | < 4.60 | COc1ccc(C(=O)Nc2nc(-c3cc(OC)c(OC)c(OC)c3)cs2)cc1 [Compound 14k, 4-Methoxy-N-(4-(3,4,5-trimethoxyphenyl)thiazol-2-yl)benzamide] | 93.8%
19 | 5.07 | COc1ccccc1C(=O)Nc1nc(-c2cc(OC)c(OC)c(OC)c2)cs1 [Compound 14q, 2-Methoxy-N-(4-(3,4,5-trimethoxyphenyl)thiazol-2-yl)benzamide] | 103.7%
20 | 5.71 | COc1cc(C(=O)/N=c2/scc(-c3cc(OC)c(OC)c(OC)c3)n2C)cc(OC)c1OC [Compound 15o, 3,4,5-Trimethoxy-N-(3-methyl-4-(3,4,5-trimethoxyphenyl)thiazol-2(3H)-ylidene) benzamide] | 81.5%
21 | 6.57 | Cn1c(-c2ccccc2Cl)csc1=NC(=O)c1ccccc1 [Compound 15b, N-(4-(2-Chlorophenyl)-3-methylthiazol-2(3H)-ylidene)benzamide] | 72.2%
22 | 7.49 | CCCN(C(=O)c1ccccc1)c1nc(-c2ccccc2)cs1 [Compound 8b, N-(4-Phenylthiazol-2-yl)-N-propylbenzamide] | 116.0%
23 | 5.79 | Cc1sc(N(C)C(=O)c2ccccc2)nc1-c1ccc(F)cc1 [Compound 16e, N-(4-(4-Fluorophenyl)-5-methylthiazol-2-yl)-N-methylbenzamide] | 107.6%
24 | 6.51 | Cc1ccc(-c2cnc(NC(=O)c3ccccc3)s2)cc1 [Compound 14j, N-(5-(p-Tolyl)thiazol-2-yl)benzamide] | 55.6%
25 |  | C#CCN(C(=O)c1ccccc1)c1nc(-c2ccc(C)cc2C)cs1 [Compound 6, N-(4-(2,4-Dimethylphenyl)thiazol-2-yl)-N-(prop-2-yn-1-yl)benzamide] | 106.4%
26 | 7.61 | C=CCn1c(-c2ccccc2)csc1=NC(=O)c1ccccc1 [Compound 7c, N-(3-Allyl-4-phenylthiazol-2(3H)-ylidene)benzamide] | 64.8%
27 | 6.50 | CN(C(=O)c1ccccc1)c1nc(-c2ccc(Br)cc2)cs1 [Compound 16c, N-(4-(4-Bromophenyl)thiazol-2-yl)-N-methylbenzamide] | 65.4%
28 | 7.38 | CN(C(=O)c1ccccc1)c1nc(-c2ccccc2Cl)cs1 [Compound 16a, N-(4-(2-Chlorophenyl)thiazol-2-yl)-N-methylbenzamide] | 88.9%
29 | 5.99 | COc1cc(C(=O)Nc2nc(-c3cc(OC)c(OC)c(OC)c3)cs2)cc(OC)c1OC [Compound 14o, 3,4,5-Trimethoxy-N-(4-(3,4,5-trimethoxyphenyl)thiazol-2-yl)benzamide] | 77.6%

Row | Compound | pIC50 [1] | Cytotoxicity (Survival at 1 μM) [2]
30 | CCCCCCn1c(-c2ccc(C)cc2C)csc1=NC(=O)c1ccccc1 [Compound 5o, N-(4-(2,4-Dimethylphenyl)-3-hexylthiazol-2(3H)-ylidene)benzamide] | 7.06 | 90.0%
